Data as given in US11497734B2, “Dual inhibitors of TIM-3 and PD-1 pathways” (Aurigene Discovery Technologies Limited, priority 2017, dated 2022).

Assays:
PD-L1 = biological target: T1, PD-L1 (Mus musculus, UniProt Q9EP73); test: Rescue of mouse splenocyte proliferation in the presence of recombinant PD-L1 (CFSE proliferation assay); type: cell-based; settings: 100 nM compound; anti-CD3/CD28 stimulated mouse splenocytes + PD-L1; 72 h; read-out: PDL1 (rescue of proliferation @ 100 nM)
T1 construct: Fc (Fc chimera); purchased R&D Systems 1019-B7-100
Method: Example 1: Rescue of Mouse Splenocyte Proliferation in the Presence of Recombinant PD-L1/PD-L2
Recombinant mouse PD-L1 (rm-PDL-1, cat no: 1019-B7-100; R&D Systems) were used as the source of PD-L1.
Mouse splenocytes harvested from 6-8 weeks old C57 BL6 mice; RPMI 1640 (GIBCO, Cat #11875); DMEM with high glucose (GIBCO, Cat #D6429); Fetal Bovine Serum [Hyclone, Cat #SH30071.03]; Penicillin (10000 unit/mL)-Streptomycin (10,000 μg/mL) Liquid (GIBCO, Cat #15140-122); MEM Sodium Pyruvate solution 100 mM (100×)), Liquid (GIBCO, Cat #11360); Nonessential amino acid (GIBCO, Cat #11140); L-Glutamine (GIBCO, Cat #25030); Anti-CD3 antibody (eBiosciences—16-0032); Anti-CD28 antibody (eBiosciences—16-0281); ACK lysis buffer (1 mL) (GIBCO, Cat #-A10492); Histopaque (density—1.083 gm/mL) (SIGMA 10831); Trypan blue solution (SIGMA-T8154); 2 mL Norm Ject Luer Lock syringe-(Sigma 2014-12); 40 μm nylon cell strainer (BD FALCON 35230); Hemacytometer (Bright line-SIGMA Z359629); FACS Buffer (PBS/0.1% BSA): Phosphate Buffered Saline (PBS) pH 7.2 (HiMedia TS1006) with 0.1% Bovine Serum Albumin (BSA) (SIGMA A7050) and sodium azide (SIGMA 08591); 5 mM stock solution of CFSE: CFSE stock solution was prepared by diluting lyophilized CFSE with 180 μL of Dimethyl sulfoxide (DMSO C2H6SO, SIGMA-D-5879) and aliquoted in to tubes for further use. Working concentrations were titrated from 10 μM to 1 μM. (eBioscience-650850-85); 0.05% Trypsin and 0.02% EDTA (SIGMA 59417C); 96-well format ELISA plates (Corning CLS3390); BD FACS caliber (E6016); Recombinant mouse B7-H1/PDL1 Fc Chimera, (rm-PD-L1 cat no: 1019-B7-100).
Splenocytes harvested in a 50 mL falcon tube by mashing mouse spleen in a 40 μm cell strainer were further treated with 1 mL ACK lysis buffer for 5 min at room temperature. After washing with 9 mL of RPMI complete media, cells were re-suspended in 3 mL of 1×PBS in a 15 mL tube. 3 mL of Histopaque was added carefully to the bottom of the tube without disturbing overlaying splenocyte suspension. After centrifuging at 800×g for 20 min at room temperature, the opaque layer of splenocytes was collected carefully without disturbing/mixing the layers. Splenocytes were washed twice with cold 1×PBS followed by total cell counting using Trypan Blue exclusion method and used further for cell based assays.
Splenocytes were cultured in RPMI complete media (RPMI+10% fetal bovine serum+1 mM sodium pyruvate+10,000 units/mL penicillin and 10,000 μg/mL streptomycin) and maintained in a CO2 incubator with 5% CO2 at 37° C.
CFSE Proliferation Assay: CFSE is a dye that passively diffuses into cells and hinds to intracellular proteins. 1×10^6 cells/mL of harvested splenocytes were treated with 5 μM of CFSE in pre-warmed 1×PBS/0.1% BSA solution for 10 min at 37° C. Excess CFSE was quenched using 5 volumes of ice-cold culture media to the cells and incubated on ice for 5 min. CFSE labeled splenocytes were further given three washes with ice cold complete RPMI media. CFSE labeled 1×10^5 splenocytes added to wells containing either MDA-MB231 cells (1×10^5 cells cultured in high glucose DMEM medium) or recombinant human PDL-1 (100 ng/mL) and test compounds. Splenocytes were stimulated with anti-mouse CD3 and anti-mouse CD28 antibody (1 μg/mL each), and the culture was further incubated for 72 h at 37° C. with 5% CO2. Cells were harvested and washed thrice with ice cold FACS buffer and % proliferation was analysed by flow cytometry with 488 nm excitation and 521 nm emission filters. Data Compilation, Processing and Inference: […]

recombinant human TIM-3 = test: Human PBMC IFN-γ release assay in the presence of recombinant TIM-3; type: cell-based; settings: 100 nM compound, plate-coated TIM-3 + anti-CD3, anti-CD28, 72 h
Method: Vehicle: Milli Q water; RPMI 1640 (GIBCO, Cat #11875); Fetal Bovine Serum [Hyclone, Cat #SH30071.03]; Penicillin (10000 unit/ml)-Streptomycin (10,000 μg/ml) liquid (GIBCO, Cat #15140-122); MEM Sodium Pyruvate solution 100 mM (100×). Liquid (GIBCO, Cat #11360); Nonessential amino acid (GIBCO, Cat #11140); L-Glutamine (GIBCO, Cat #25030); Recombinant human TIM-3 (rhGi24 TIM-3/B7-H5 Fc chimera (R&D systems, cat no: 7126-B7); Anti-h/m Gi24/TIM-3/B7-H5 purified mouse monoclonal IgG2B (R&D systems, cat no: MAB7126); Mouse IgG2B isotype control (R&D Systems cat no: MAB 004); Anti human-CD3 antibody (eBiosciences—16-0039); Anti human-CD28 antibody (eBiosciences—16-0289); Histopaque (density-1.077 gm/ml) (SIGMA 1077); Trypan Blue solution (SIGMA-T8154); Hemacytometer (Bright line-SIGMA Z359629); FACS Buffer containing Phosphate Buffered Saline (PBS) pH 7.2; (HiMedia TS1006) with 0.1% Bovine Serum Albumin (BSA) (SIGMA A7050) and sodium azide (SIGMA 08591); 96-well format ELISA plates (Corning 3599); 96-well format ELISA plates (Corning 3361); BD FACS caliber (E6016); Centrifuge (Eppendorf 5810 R); Human IFN-'γ Duo set ELISA kit (R&D Systems; cat no: DY-285).
Human PBMC IFN-γ Release Assay
96-well cell culture plates were pre-coated with recombinant human TIM-3 (2.5 μg/ml) and anti-human CD3 (2.5 μg/ml), and stored at 4° C. overnight. Anti-human TIM-3 and isotype control antibodies were either coated along with the TIM-3 or incubated for 30 min next day before addition of cells. On the next day, plates were washed with 1× PBS and then incubated with test compounds for 30 min. Isolated PBMC (0.1×10^6 cells/well) and anti-human CD28 antibodies (1 μg/ml) were added to the wells. The culture was further incubated for 72 h at 37° C. with 5% CO2. After 72 h of incubation the cell culture supernatants were collected after brief centrifugation at 200 g×5 min at 4° C. and processed for human IFN-γ measurement by ELISA following manufacturer's protocol (R&D Systems; DY-285).
In brief, 96-well ELISA plates were coated with 100 μl/well of capture antibody in coating buffer and incubated overnight at 4° C. Plates were washed five times with wash buffer and further blocked with 200 μl of 1× assay diluents for 1 hr at RT. Following wash step, 100 μl of cell culture supernatants were added to wells and further incubated for 2 hr at RT. Appropriate standards were also included. After wash step, plate was incubated for one hour with 100 μl/well of detection antibody. The wash step was repeated and the plate was incubated for 30 min with 100 μl/well of Avidin-HRP. The plate was washed four times with wash buffer and subsequently incubated for 15 min with 100 μl/well of substrate solution. 50 μl of stop solution was added to each well and the plate was read at 450 nm using Gen5 ver 2.05. Delta OD values were used for calculating the concentrations. The absorbance values were plotted against the standards and the concentration of IFN-γ was determined using GraphPad Prism software. Each experimental condition was carried out in triplicates.
The percent rescue of IFN-γ release of the selected compounds of present invention are set forth below wherein “A” refers to compounds having more than 70% rescue of IFN-γ release, “B” refers to compounds having rescue of IFN-γ release ranges from 50% to 69.9% and “C” refers to compounds having less than 50% rescue of IFN-γ release.

T1 sequence (Q9EP73 19-238 limits assumed): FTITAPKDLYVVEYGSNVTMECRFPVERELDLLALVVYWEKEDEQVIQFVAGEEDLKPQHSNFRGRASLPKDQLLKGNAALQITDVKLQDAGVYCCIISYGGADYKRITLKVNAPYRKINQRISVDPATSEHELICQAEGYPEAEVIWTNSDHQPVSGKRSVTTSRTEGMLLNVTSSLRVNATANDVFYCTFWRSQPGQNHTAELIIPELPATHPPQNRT

Row | activity at 0.1 µM (PD-L1) [%] | Structure (SMILES) | TIM-3 (rescue of IFN γ release @ 100 nM) (recombinant human TIM-3)
1 | 47 | CC(O)[C@H](NC(=O)N[C@@H](CC(N)=O)c1nc(C2(N)CCCC2)no1)C(=O)O (stereo partly drawn) [Compound 23] | C (less than 50% rescue of IFN-γ release)
2 | 70 | N=C(N)NCCC[C@H](N)c1noc([C@H](CC(N)=O)NC(=O)N[C@@H](CO)C(=O)O)n1 [Compound 25] | A (more than 70% rescue of IFN-γ release)
3 | 50 | CC(O)[C@H](NC(=O)N[C@@H](CC(N)=O)c1nc([C@@H](N)Cc2ccc(O)cc2)no1)C(=O)O (stereo partly drawn) [Compound 21] | C (less than 50% rescue of IFN-γ release)
4 | 54 | N[C@@H](Cc1ccc(O)cc1)c1noc([C@@H]2CCCCN2C(=O)N[C@@H](Cc2ccc(O)cc2)C(=O)O)n1 [Compound 19] | C (less than 50% rescue of IFN-γ release)
5 | 90 | CC(O)[C@@H](NC(=O)N[C@@H](CC(N)=O)c1nc([C@@H](N)CO)no1)C(=O)O (stereo partly drawn) [Compound 22] | C (less than 50% rescue of IFN-γ release)
6 | 37 | CC(=O)NCCCC[C@H](NC(=O)N[C@H](C(=O)O)C(C)O)c1nc([C@@H](N)CO)no1 (stereo partly drawn) [Compound 20] | C (less than 50% rescue of IFN-γ release)
7 | 65 | CC(O)[C@H](NC(=O)N[C@@H](CC(N)=O)c1nc([C@@H](O)CO)no1)C(=O)O (stereo partly drawn) [Compound 24] | A (more than 70% rescue of IFN-γ release)

The next lines start with the compound.

Row | Structure (SMILES) | activity at 0.1 µM (PD-L1) [%] | TIM-3 (rescue of IFN γ release @ 100 nM) (recombinant human TIM-3)
8 | CC(O)[C@H](NC(=O)N[C@@H](CCCCN)c1nc([C@@H](N)CO)no1)C(=O)O (stereo partly drawn) [Compound 13] | 66 | C (less than 50% rescue of IFN-γ release)
9 | CC(O)[C@H](NC(=O)N[C@@H](CC(N)=O)c1nc([C@@H](N)Cc2ccccc2)no1)C(=O)O (stereo partly drawn) [Compound 3] | 62 | A (more than 70% rescue of IFN-γ release)
10 | CC(C)[C@H](NC(=O)N[C@@H](CC(N)=O)c1nc([C@@H](N)CCCCN)no1)C(=O)O [Compound 9] | 138 | C (less than 50% rescue of IFN-γ release)
11 | CCC(C)[C@H](NC(=O)N[C@@H](CC(N)=O)c1nc([C@@H](N)CO)no1)C(=O)O (stereo partly drawn) [Compound 2] | 73 | A (more than 70% rescue of IFN-γ release)
12 | NCCCC[C@H](N)c1noc([C@H](CCC(=O)O)NC(=O)N[C@@H](CO)C(=O)O)n1 [Compound 11] | 60 | C (less than 50% rescue of IFN-γ release)
13 | COC(C)[C@H](NC(=O)N[C@@H](CC(N)=O)c1nc([C@@H](N)CO)no1)C(=O)O (stereo partly drawn) [Compound 14] | 84 | C (less than 50% rescue of IFN-γ release)
14 | N[C@@H](Cc1ccc(O)cc1)c1noc([C@@H]2CC(O)CN2C(=O)N[C@@H](Cc2ccc(O)cc2)C(=O)O)n1 (stereo partly drawn) [Compound 18] | 57 | C (less than 50% rescue of IFN-γ release)
15 | CC(O)[C@@H](N)c1noc([C@@H](CC(N)=O)NC(=O)N[C@H](CO)C(=O)O)n1 (stereo partly drawn) [Compound 8] | 68 | B (rescue of IFN-γ release ranges from 50% to 69.9%)
16 | CC(O)[C@H](NC(=O)N[C@@H](CC(=O)O)c1nc([C@@H](N)CO)no1)C(=O)O (stereo partly drawn) [Compound 4] | 52 | C (less than 50% rescue of IFN-γ release)
17 | CC(O)[C@H](NC(=O)N[C@@H](CCC(=O)O)c1nc([C@@H](N)CO)no1)C(=O)O (stereo partly drawn) [Compound 5] | 88 | A (more than 70% rescue of IFN-γ release)
18 | CCC(C)[C@H](NC(=O)N[C@H](C(=O)O)C(C)O)c1nc([C@@H](N)CO)no1 (stereo partly drawn) [Compound 15] | 50 | C (less than 50% rescue of IFN-γ release)
19 | CC(O)[C@H](NC(=O)N[C@@H](CCC(=O)O)c1nc([C@@H](N)CCCCN)no1)C(=O)O (stereo partly drawn) [Compound 6] | 52 | A (more than 70% rescue of IFN-γ release)
20 | CC(O)[C@H](NC(=O)N[C@@H](CCC(=O)O)c1nc(C2COCCN2)no1)C(=O)O (stereo partly drawn) [Compound 17] | 57 | C (less than 50% rescue of IFN-γ release)
21 | CC(O)[C@H](NC(=O)N[C@@H](CC(N)=O)c1nc(C2COCCN2)no1)C(=O)O (stereo partly drawn) [Compound 16] | 92 | B (rescue of IFN-γ release ranges from 50% to 69.9%)
